This passage reports Binding % results from patent US11377441B2, “Covalent inhibitors of KRAS” (Araxes Pharma LLC, priority 2017, dated 2022).

The target of this assay is T1, KRAS G12C 1-169, his-tagged protein, GDP-loaded (Homo sapiens, UniProt P01116, G12C).
T1 construct: KRAS G12C 1-169, his-tagged protein, GDP-loaded
Description: Biochemical assay: covalent modification of KRAS G12C measured by mass spectrometry (RapidFire/TOF or Q-Exactive). Format: binding. The note with it: covalent binding to (modification of) KRAS G12C after a ten minute incubation period. Summed up:
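GDP-loaded KRAS G12C 1-169 (his-tagged) at 2 μM or 0.5 μM in 20 mM Hepes, 150 mM NaCl, 1 mM MgCl2, incubated with compound at 100, 30 or 10 μM at room temperature for 10 min, 30 min, 2 h or 24 h, then quenched with formic acid. Intact-protein LC-MS, deconvolved; percent modification from modified versus unmodified protein.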

As to `C=CC(=O)N1C[C@H](C)N(c2nc(OCCN3CCC(F)CC3)nc3c(F)c(-c4c(C)ccc5[nH]nc(C)c45)c(Cl)cc23)C[C@H]1C` [Compound 164, 1-((2R,5S)-4-((R)-6-chloro-7-(3,5-dimethyl-1H-indazol-4-yl)-8-fluoro-2-(2-(4-fluoropiperidin-1-yl)ethoxy)quinazolin-4-yl)-2,5-dimethylpiperazin-1-yl)prop-2-en-1-one], the Binding % result was “+++ (+++ indicates binding activity greater than 80%)”.
To `C=CC(=O)N1CCN(c2nc(N3CC(N(C)C)C3)nc3c(F)c(-c4c(C)ccc5[nH]nc(N)c45)c(Cl)cc23)C[C@H]1C` [Compound 165, 1-((2R)-4-(7-(3-amino-5-methyl-1H-indazol-4-yl)-6-chloro-2-(3-(dimethylamino)azetidin-1-yl)-8-fluoroquinazolin-4-yl)-2-methylpiperazin-1-yl)prop-2-en-1-one] belongs “+++ (+++ indicates binding activity greater than 80%)”; to `C=CC(=O)N1C[C@H](C)N(c2nc(N3CC(N(C)C)C3)nc3c(F)c(-c4c(C)ccc5cnn(C)c45)c(C(F)(F)F)cc23)C[C@H]1C` [Compound 171, 1-((2R,5S)-4-(7-(1,6-dimethyl-1H-indazol-7-yl)-2-(3-(dimethylamino)azetidin-1-yl)-8-fluoro-6-(trifluoromethyl)quina-zolin-4-yl)-2,5-dimethylpiperazin-1-yl)prop-2-en-1-one], “+++ (+++ indicates binding activity greater than 80%)”; to `C=CC(=O)N1C[C@H](C)N(c2nc(OC[C@H]3CCCN3C)nc3c(F)c(-c4c(C)ccc5[nH]nc(C6CC6)c45)c(Cl)cc23)C[C@H]1C` [Compound 172, 1-((2R,5S)-4-(6-chloro-7-(3-cyclopropyl-5-methyl-1H-indazol-4-yl)-8-fluoro-2-(((R)-1-methylpyrroldiin-2-yl)methoxy)quinazolin-4-yl)-2,5-dimethylpiperazin-1-yl)prop-2-en-1-one], “+++ (+++ indicates binding activity greater than 80%)”.
Regarding `C=CC(=O)N1C[C@H](C)N(c2nc(N3CC(N(C)C)C3)nc3c(F)c(-c4c(C)ccc5cnn(C6CC6)c45)c(C(F)(F)F)cc23)C[C@H]1C` [Compound 173, 1-((2R,5S)-4-(7-(1-cyclopropyl-6-methyl-1H-indazol-7-yl)-2-(3-(dimethylamino)azetidin-1-yl)-8-fluoro-6-(trifluoromethyl)quina-zolin-4-yl)-2,5-dimethylpiperazin-1-yl)prop-2-en-1-one], the Binding % entry is on record as “+++ (+++ indicates binding activity greater than 80%)”.
To `C=CC(=O)N1C[C@H](C)N(c2nc(OC[C@@H]3CCN(C)C3)nc3c(F)c(-c4c(C)ccc5cnn(C)c45)c(Cl)cc23)C[C@H]1C` [Compound 174, 1-((2R,5S)-4-(6-chloro-7-(1,6-dimethyl-1H-indazol-7-yl)-8-fluoro-2-(((R)-1-methylpyrrolidin-3-yl)methoxy)quinazolin-4-yl)-2,5-dimethylpiperazin-1-yl)prop-2-en-1-one] belongs “+++ (+++ indicates binding activity greater than 80%)”; to `C=CC(=O)N1C[C@H](C)N(c2nc(OC[C@@H]3CCN(C)C3)nc3c(F)c(-c4c(C)ccc5[nH]nc(C)c45)c(Cl)cc23)C[C@H]1C` [Compound 175, 1-((2R,5S)-4-(6-chloro-7-(3,5-dimethyl-1H-indazol-4-yl)-8-fluoro-2-(((R)-1-methylpyrrolidin-3-yl)methoxy)quinazolin-4-yl)-2,5-dimethylpiperazin-1-yl)prop-2-en-1-one], “++ (++ indicates binding activity from 50 to 80%)”.
For the compound `C=CC(=O)N1C[C@H](C)N(c2nc(OC[C@@H]3CN(C)CCO3)nc3c(F)c(-c4c(C)ccc5cnn(C)c45)c(Cl)cc23)C[C@H]1C` [Compound 176, 1-((2R,5S)-4-(6-chloro-7-(1,6-dimethyl-1H-indazol-7-yl)-8-fluoro-2-(((S)-4-methylmorpholin-2-yl)methoxy)quinazolin-4-yl)-2,5-dimethylpiperazin-1-yl)prop-2-en-1-one], the Binding % result is recorded as “+++ (+++ indicates binding activity greater than 80%)”.
To `C=CC(=O)N1C[C@H](C)N(c2nc(OC[C@@H]3CCN(C)C3)nc3c(F)c(-c4c(C)ccc5[nH]nc(C6CC6)c45)c(Cl)cc23)C[C@H]1C` [Compound 177, 1-((2R,5S)-4-(6-chloro-7-(3-cyclopropyl-5-methyl-1H-indazol-4-yl)-8-fluoro-2-(((R)-1-methylpyrrolidin-3-yl)methoxy)quinazolin-4-yl)-2,5-dimethylpiperazin-1-yl)prop-2-en-1-one] belongs “+++ (+++ indicates binding activity greater than 80%)”.
The same measure for `C=CC(=O)N1C[C@H](C)N(c2nc(OC[C@H]3COCCN3C)nc3c(F)c(-c4c(C)ccc5cnn(C)c45)c(Cl)cc23)C[C@H]1C` [Compound 178, 1-((2R,5S)-4-(6-chloro-7-(1,6-dimethyl-1H-indazol-7-yl)-8-fluoro-2-(((R)-4-methylmorpholin-3-yl)methoxy)quinazolin-4-yl)-2,5-dimethylpiperazin-1-yl)prop-2-en-1-one]: “++ (++ indicates binding activity from 50 to 80%)”.
To `C=CC(=O)N1C[C@H](C)N(c2nc(OC[C@H]3CCCN3C)nc3c(F)c(-c4c(C)ccc5[nH]nc(C)c45)c(Cl)cc23)C[C@H]1C` [Compound 179, 1-((2R,5S)-4-(6-chloro-7-(3,5-dimethyl-1H-indazol-4-yl)-8-fluoro-2-(((R)-1-methylpyrrolidin-2-yl)methoxy)quinazolin-4-yl)-2,5-dimethyllpiperazin-1-yl)prop-2-en-1-one] belongs “+++ (+++ indicates binding activity greater than 80%)”; to `C=CC(=O)N1C[C@H](C)N(c2nc(OC[C@H]3COCCN3C)nc3c(F)c(-c4c(C)ccc5[nH]nc(C6CC6)c45)c(Cl)cc23)C[C@H]1C` [Compound 180, 1-((2R,5S)-4-(6-chloro-7-(3-cyclopropyl-5-methyl-1H-indazol-4-yl)-8-fluoro-2-(((R)-4-methymorpholin-3-yl)methoxy)quinazolin-4-yl)-2,5-dimethylpiperazin-1-yl)prop-2-en-1-one], “++ (++ indicates binding activity from 50 to 80%)”; to `C=CC(=O)N1C[C@H](C)N(c2nc(OC[C@H]3COCCN3C)nc3c(F)c(-c4c(C)ccc5[nH]nc(C)c45)c(Cl)cc23)C[C@H]1C` [Compound 181, 1-((2R,5S)-4-(6-chloro-7-(3,5-dimethyl-1H-indazol-4-yl)-8-fluoro-2-(((R)-4-methylmorpholin-3-yl)methoxy)quinazolin-4-yl)-2,5-dimethylpiperazin-1-yl)prop-2-en-1-one], “+ (+ indicates binding activity greater than 0% and up to 50%)”.
For the compound `C=CC(=O)N1C[C@H](C)N(c2nc(OC[C@@H]3COCCN3C)nc3c(F)c(-c4c(C)ccc5cnn(C)c45)c(Cl)cc23)C[C@H]1C` [Compound 182, 1-((2R,5S)-4-(6-chloro-7-(1,6-dimethyl-1H-indazol-7-yl)-8-fluoro-2-(((S)-4-methylmorpholin-3-yl)methoxy)quinazolin-4-yl)-2,5-dimethylpiperazin-1-yl)prop-2-en-1-one], the Binding % result is on record as “++ (++ indicates binding activity from 50 to 80%)”.
The same measure for `C=CC(=O)N1C[C@H](C)N(c2nc(OC[C@@H]3COCCN3C)nc3c(F)c(-c4c(C)ccc5[nH]nc(C6CC6)c45)c(Cl)cc23)C[C@H]1C` [Compound 183, 1-((2R,5S)-4-(6-chloro-7-(3-cyclopropyl-5-methyl-1H-indazol-4-yl)-8-fluoro-2-(((S)-4-methylmorpholin-3-yl)methoxy)quinazolin-4-yl)-2,5-dimethylpiperazin-1-yl)prop-2-en-1-one]: “+++ (+++ indicates binding activity greater than 80%)”; for `C=CC(=O)N1C[C@H](C)N(c2nc(OC[C@@H]3COCCN3C)nc3c(F)c(-c4c(C)ccc5[nH]nc(C)c45)c(Cl)cc23)C[C@H]1C` [Compound 184, 1-((2R,5S)-4-(6-chloro-7-(3,5-dimethyl-1H-indazol-4-yl)-8-fluoro-2-(((S)-4-methylmorpholin-3-yl)methoxy)quinazolin-4-yl)-2,5-dimethylpiperazin-1-yl)prop-2-en-1-one]: “+++ (+++ indicates binding activity greater than 80%)”; for `C=CC(=O)N1C[C@H](C)N(c2nc(OC[C@@H]3CCCN3C)nc3c(F)c(-c4c(C)ccc5[nH]nc(C)c45)c(Cl)cc23)C[C@H]1C` [Compound 185, 1-((2R,5S)-4-(6-chloro-7-(3,5-dimethyl-1H-indazol-4-yl)-8-fluoro-2-(((S)-1-methylpyrrolidin-2-yl)methoxy)quinazolin-4-yl)-2,5-dimethylpiperazin-1-yl)prop-2-en-1-one]: “+++ (+++ indicates binding activity greater than 80%)”.
To `C=CC(=O)N1C[C@H](C)N(c2nc(OC[C@H]3CN(C)CCO3)nc3c(F)c(-c4c(C)ccc5cnn(C)c45)c(Cl)cc23)C[C@H]1C` [Compound 186, 1-((2R,5S)-4-(6-chloro-7-(1,6-dimethyl-1H-indazol-7-yl)-8-fluoro-2-(((R)-4-methylmorpholin-2-yl)methoxy)quinazolin-4-yl)-2,5-dimethylpiperazin-1-yl)prop-2-en-1-one] belongs “+++ (+++ indicates binding activity greater than 80%)”.
To `C=CC(=O)N1C[C@H](C)N(c2nc(OC[C@@H]3CN(C)CCO3)nc3c(F)c(-c4c(C)ccc5[nH]nc(C6CC6)c45)c(Cl)cc23)C[C@H]1C` [Compound 187, 1-((2R,5S)-4-(6-chloro-7-(3-cyclopropyl-5-methyl-1H-indazol-4-yl)-8-fluoro-2-(((S)-4-methylmorpholin-2-yl)methoxy)quinazolin-4-yl)-2,5-dimethylpiperazin-1-yl)prop-2-en-1-one] belongs “+++ (+++ indicates binding activity greater than 80%)”.
